From patent US7517654B2, “Peptide and a derivative thereof promoting cell adhesion and spreading” (Seoul National University Industry Foundation, priority 2004, dated 2009)

B1: rLG1: recombinant His6-tagged LG1 domain, residues 782-978 of human laminin α3 chain, expressed in E. coli (protein, listed as Homo sapiens)
chain: RLPNDLEDLKGYTSLSLFLQRPNSRENGGTENMFVMYLGNKDASRDYIGMAVVDGQLTCVYNLGDREAELQVDQILTKSETKEAVMDRVKFQRIYQFARLNYTKGATSSKPETPGVYDMDGRNSNTLLNLDPENVVFYVGGYPPDFKLPSRLSFPPYKGCIELDDLNENVLSLYNFKKTFNLNTTEVEPCRRRKEES
modifications: His6 tag
notes: recombinant His6-tagged LG1 domain, residues 782-978 of human laminin α3 chain, expressed in E. coli
B2: rLG2: recombinant His6-tagged LG2 domain, residues 959-1148 of human laminin α3 chain (protein, listed as Homo sapiens)
chain: KTFNLNTTEVEPCRRRKEESDKNYFEGTGYARVPTQPHAPIPTFGQTIQTTVDRGLLFFAENGDRFISLNIEDGKLMVRYKLNSELPKERGVGDAINNGRDHSIQIKIGKLQKRMWINVDVQNTIIDGEVFDFSTYYLGGIPIAIRERFNISTPAFRGCMKNLKKTSGVVRLNDTVGVTKKCSEDWKLVR
modifications: His6 tag
notes: recombinant His6-tagged LG2 domain, residues 959-1148 of human laminin α3 chain
B3: rLG4: recombinant His6-tagged LG4 domain, residues 1352-1555 of human laminin α3 chain (protein, listed as Homo sapiens)
chain: DACSPLPKTQANHGALQFGDIPTSHLLFKLPQELLKPRSQFAVDMQTTSSRGLVFHTGTKNSFMALYLSKGRLVFALGTDGKKLRIKSKEKCNDGKWHTVVFGHDGEKGRLVVDGLRAREGSLPGNSTISIRAPVYLGSPPSGKPKSLPTNSFVGCLKNFQLDSKPLYTPSSSFGVSSCLGGPLEKGIYFSEEGGHVVLAHSVL
modifications: His6 tag
notes: recombinant His6-tagged LG4 domain, residues 1352-1555 of human laminin α3 chain
B4: rLG5: recombinant His6-tagged LG5 domain, residues 1522-1713 of human laminin α3 chain (protein, listed as Homo sapiens)
chain: SSSFGVSSCLGGPLEKGIYFSEEGGHVVLAHSVLLGPEFKLVFSIRPRSLTGILIHIGSQPGKHLCVYLEAGKVTASMDSGAGGTSTSVTPKQSLCDGQWHSVAVTIKQHILHLELDTDSSYTAGQIPFPPASTQEPLHLGGAPANLTTLRIPVWKSFFGCLRNIHVNHIPVPVTEALEVQGPVSLNGCPDQ
modifications: His6 tag
notes: recombinant His6-tagged LG5 domain, residues 1522-1713 of human laminin α3 chain

Experiments:
[1] = tested on: HOK-16B cells; test: Cell adhesion assay on coated plates (crystal violet absorbance at 570 nm / cell counting); format: cell-based, human; settings: 1 h; for cell adhesion activity of synthetic peptides / cell adhesion activity compared to the peptide P4 control: HOK-16B cells; for cell adhesion activity of synthetic peptides: plates coated with 10-50 μg/well peptide, serum-free medium; for cell adhesion activity compared to the peptide P4 control: 10 μg/well truncated or Ala-substituted peptide coating; for cell adhesion activity of rLG proteins: HOK-16B cells on rLG protein-coated plates, compared to BSA control
Procedure: The cell adhesion assay was performed according to a method reported by Okazaki et al. (J. Biol. Chem., 277:37070, 2002). In detail, 24-well culture plates (Nunc, Roskilde, Denmark) were coated with various amounts of rLG proteins at 4° C. overnight. The peptides were also coated on plates by drying overnight. The substrate-coated on the plates were blocked by adding 1% heat-inactivated bovine serum albumin (BSA) in PBS for 1 h at 37° C. and washed twice with PBS. The cells in the Experimental Example 1, detached by 0.05% tyrpsin and 0.53 mM EDTA in PBS and resuspended in culture media, were added (1×10^5 cells/500 μl) to each plate and incubated for 1 h at 37° C. After incubation, unattached cells were removed by rinsing twice with PBS. The attached cells were fixed with 10% formalin in PBS for 15 min, rinsed twice with PBS, and stained with 0.5% crystal violet for 1 h. The plates were gently rinsed with DDW three times and lysed with 2% SDS for 5 min. Absorbance was measured at 570 nm in a Bio-Rad Model 550 microplate reader (BioRad).
The cell adhesion and spreading activities on peptide-coated plates were examined using HOK-16B cells by the same method as Experimental Example 2. 24-well plates were coated with 10, 20, 30, 40 and 50 μg/well peptides P1 to P5, respectively. HOK-16B cells were added to peptide-coated plates and cultured for 1 h in serum-free medium for 1 hr. After the unbound cells were washed off, adherent cells were fixed and stained with crystal violet, and then the stained cells were analyzed. Absorbance was measured at 570 nm in a microplate reader. BSA and the rLG3 were used as negative control and positive control, respectively.
It was observed that peptide P4 promotes strong cell adhesion and spreading activities and binds to integrin α3β1 in the Example 4. Therefore, to determine the biologically active core sequences in peptide P4, five synthetic peptides (P4 D-I to P4 D-V), which are C-terminal truncated peptides from the peptide P4, and six synthetic peptides (P4 D-N1 to P4 D-N6), which are N-terminal truncated peptides from the peptide P4 were prepared (FIG. 6A) and examined for HOK-16B cell adhesion and spreading activities on peptide-coated plates by the present inventors. 24-well plates were coated with 10 μg/well C-terminal truncated peptides or N-terminal truncated peptides, and HOK-16B cells were added to the plates, and then cultured in serum-free medium for 1 hr. After the unbound cells were washed off, the adherent cells were fixed to stain with crystal violet, and the stained cells were analyzed. Absorbance was measured at 570 nm in a microplate reader. Peptide P4 and BSA were used as the positive and negative controls, respectively.
24-well plates were coated with 10 μg/well peptides, and HOK-16B cells were added to the plates, and then cultured in serum-free medium for 1 hr. After the unbound cells were washed off, the adherent cells were fixed to stain with crystal violet, and the stained cells were analyzed. Peptide P4 and BSA were used as the positive and negative controls, respectively. The results were expressed as mean ±SD of the four independent experiments.

[2] = tested on: HOK-16B cells; test: Cell spreading activity assay on coated plates; format: cell-based, human; settings: for cell spreading activity compared to the peptide P4 control: HOK-16B cells, 10 μg/well truncated or Ala-substituted peptide coating, 1 h; for cell spreading activity: HOK-16B cells on rLG protein- or peptide P1-P5-coated plates
Procedure: To identify spreading cells, attached cells were fixed with 10% formalin in PBS for 15 min, rinsed twice with PBS, and stained with 0.005% crystal violet for 1 h. The plates were then gently rinsed with DDW. To ensure a representative count, each plate was divided into quarters, two fields per quarter were photographed using an Olympus BX51 microscope at 100× magnification. Cells that had adopted a flattened, polygonal shape, with filopodia-and lamellipodia-like extensions were considered to be spreading cells. In contrast, cells that resisted being washed and remained tethered to the plate surface were considered to be non-spreading cells.
To examine the adhesion activity of peptide P4 in detail, the inventors examined whether the adherent cells were tethered to the substratum or spread over the substratum. The BSA and rLG3 were used as the negative control and positive control, respectively, the percentage of cells displaying a spreading morphology was quantified by dividing the number of spreading cells by the total number of bound cells.

| Molecule | cell adhesion activity of synthetic peptides [1] | cell adhesion activity compared to the peptide P4 control [1] | cell spreading activity [2] | cell adhesion activity of rLG proteins [1] | other results |
| --- | --- | --- | --- | --- | --- |
| P2: 12-mer peptide, residues 1297-1308 of SEQ ID NO: 2 (SLKRDVSLGGCS; listed as Homo sapiens) | no adhesion activity | – | – | – | – |
| P3: 12-mer peptide, residues 1305-1316 of SEQ ID NO: 2 (GGCSLNKPPFLM; listed as Homo sapiens) | no adhesion activity | – | – | – | – |
| peptide P1: 12-mer peptide, residues 1293-1304 of human laminin α3 chain SEQ ID NO: 2; control peptide (LTSNSLKRDVSL; listed as Homo sapiens) | no adhesion activity | – | – | – | – |
| peptide P4 D-I: peptide P4 with a deletion of the C-terminal Arg residue (PPFLMLLKGST) | – | significantly lower cell adhesion activity than the peptide P4 control | – | – | – |
| peptide P4 D-N1: peptide P4 with a deletion of one of the N-terminal two Pro residues (PFLMLLKGSTR) | – | did not show a significantly lower cell adhesion and spreading activities | – | – | cell spreading activity compared to the peptide P4 control [2]: did not show a significantly lower cell adhesion and spreading activities |
| peptide P4 D-N2: peptide P4 with deletions of the N-terminal two Pro residues (FLMLLKGSTR) | – | showed a significantly lower cell adhesion and spreading activities | – | – | cell spreading activity compared to the peptide P4 control [2]: showed a significantly lower cell adhesion and spreading activities |
| peptide P4-S1: peptide P4 in which the 8th Lys of SEQ ID NO: 1 is replaced by Ala (PPFLMLLAGSTR) | – | unaffected | – | – | cell spreading activity compared to the peptide P4 control [2]: unaffected |
| peptide P5: 12-mer peptide, residues 1321-1332 of SEQ ID NO: 2 (STRFNKTKTFRI; listed as Homo sapiens) | very weak dose-dependent adhesion activity at concentrations ≧25 μg/well | – | – | – | – |
| B1 | – | – | minimal cell spreading | marginal adhesion activity | – |
| B2 | – | – | minimal cell spreading | marginal adhesion activity | – |
| B3 | – | – | minimal cell spreading | marginal adhesion activity | – |
| B4 | – | – | minimal cell spreading | marginal adhesion activity | – |
